Measurements from patent publication US20220175713A1, “DEPSIDE TRIMERIC COMPOUNDS FOR SKELETAL MUSCLE MODULATION” (SOCIETE DES PRODUITS NESTLE S.A., priority 2019, published 2022).

Test system: mouse hindlimb muscles injured with cardiotoxin
Assay: In vivo muscle regeneration after intramuscular cardiotoxin injury
Conditions: mice, oral gavage 100 mg/kg body weight once a day from one week before injury, muscles harvested 5 days after injury, vs. water control, FIG. 6
Method: (§1) Early phase of expansion and subsequent phase of myogenic differentiation of Muscle Stem Cells were evaluated by counting the number of Pax7+ cells (A) and myogenin+ cells (B), respectively. Data are expressed as number of cells per area of injured muscle. The size of each newly formed myofiber (C) has been measured based on the expression of the eMHC and laminin that allow to recognize and delineate these nascent myofibers. Results are shown as mean myofiber cross-sectional area (μm^2).
In order to reproduce the physiological process of muscle regeneration that occurs in adult skeletal muscles in response to injury or disease, we performed an intramuscular injection of cardiotoxin into mouse hindlimb muscles. One week prior to the induction of the muscle injury, mice were given by oral gavage gyrophoric acid (at 100 mg/kg body weight) vs. water control. […] Several myogenic markers were then measured. […]
as §1, with “(FIG. 6A)” for “(A)”, “(FIG. 6B),” for “(B),”, “(FIG. 6C)” for “(C)”, “Results are shown as mean myofiber cross-sectional area (μm^2).” left out

In the case of `Cc1cc(OC(=O)c2c(C)cc(OC(=O)c3c(C)cc(O)cc3O)cc2O)cc(O)c1C(=O)O` [gyrophoric acid, 4-[4-(2,4-dihydroxy-6-methylbenzoyl)oxy-2-hydroxy-6-methylbenzoyl]oxy-2-hydroxy-6-methylbenzoic acid], the “in vivo muscle regeneration process (Pax7+ cells, myogenin+ cells, size of newly formed myofibers)” value is reported as “Able to Promote the In Vivo Muscle Regeneration Process”.
